Experimental data reported in patent publication US20240059677A1, “SUBSTITUTED PYRIMIDINE DERIVATIVES AS NICOTINIC ACETYLCHOLINESTERASE RECEPTOR ALPHA 6 MODULATOR” (priority 2020, published 2024).
Read-outs that look alike come from different tables or passages of the source.

Target: T1, human nAChRα6-α3 chimera, in addition to β2 and β3^V273S subunits (Homo sapiens, UniProt P32297+Q15825)
T1 construct: expressed in transfected cells
Assay: fluorescence-based calcium assay: inhibition of nicotine stimulated nAChRα6 activity (FLIPR)
Settings: HEK cell line stably expressing the receptor, 10 min pre-incubation, nicotine EC80, 10-point curve, duplicate wells
Method: The ability of the test compounds to inhibit nicotine stimulated nAChRα6 activity was determined in a fluorescence-based calcium assay. Compound activity was determined using a HEK cell line stably expressing a human nAChRα6-α3 chimera, in addition to β2 and β3^V273S subunits (as in Capelli et al, Br J Pharmacol 163(2): 313-29 2011). In this cell line, nicotine stimulated an increase in intracellular calcium concentration, measured as an increase in fluorescence when cells were incubated with a calcium sensitive dye. Test compounds were pre-incubated with cells prior to nicotine stimulation to detect any reduction in the magnitude of the nicotine response.
The day prior to the assay, compounds were serially diluted in DMSO (200× final assay concentration (FAC)), in 384-well plates which were then stored in the dark at room temperature (RT) until use. Cells were seeded at 20 k/well in black, poly-D-lysine coated, clear bottom 384-well plates and incubated for 4 hours at 37° C., followed by overnight incubation at 30° C. The following day, the DMSO compound plate was diluted 1:20 (10×FAC) in assay buffer (HEPES buffered saline solution with 10 mM HEPES, 0.1% bovine serum albumin, 1 mM probenecid). A nicotine solution was prepared in assay buffer (7×FAC) and dispensed into a 384-well plate. The growth media was removed from the cell plate, replaced with 53 μl calcium dye/well (Calcium 5; Molecular Devices) and the plate incubated at 30° C. for 45 minutes. Test compounds were then added to the cells (7 μl of 10×FAC) and incubated for 10 minutes, after which nicotine EC80 (10 μl of 7×FAC) was added and changes in fluorescence measured using a FLIPR plate reader (Molecular Devices).
Compound activity was examined using a 10-point, half-log concentration-response range and each concentration was tested in duplicate wells.

T1 sequence (Q05901 25-458 V273S): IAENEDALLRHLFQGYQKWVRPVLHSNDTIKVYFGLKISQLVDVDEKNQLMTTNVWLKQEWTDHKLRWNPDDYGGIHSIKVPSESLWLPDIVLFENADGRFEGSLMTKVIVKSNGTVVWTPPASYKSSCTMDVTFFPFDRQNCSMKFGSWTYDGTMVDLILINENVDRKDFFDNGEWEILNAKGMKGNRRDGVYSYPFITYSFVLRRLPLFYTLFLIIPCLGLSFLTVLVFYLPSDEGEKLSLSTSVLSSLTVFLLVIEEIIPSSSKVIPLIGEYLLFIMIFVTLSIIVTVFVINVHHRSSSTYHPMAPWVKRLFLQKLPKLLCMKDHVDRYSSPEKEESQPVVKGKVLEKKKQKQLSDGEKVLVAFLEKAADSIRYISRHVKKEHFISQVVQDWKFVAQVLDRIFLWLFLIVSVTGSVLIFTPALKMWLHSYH
T1 sequence (P17787 26-502, stated change not applied, further chain): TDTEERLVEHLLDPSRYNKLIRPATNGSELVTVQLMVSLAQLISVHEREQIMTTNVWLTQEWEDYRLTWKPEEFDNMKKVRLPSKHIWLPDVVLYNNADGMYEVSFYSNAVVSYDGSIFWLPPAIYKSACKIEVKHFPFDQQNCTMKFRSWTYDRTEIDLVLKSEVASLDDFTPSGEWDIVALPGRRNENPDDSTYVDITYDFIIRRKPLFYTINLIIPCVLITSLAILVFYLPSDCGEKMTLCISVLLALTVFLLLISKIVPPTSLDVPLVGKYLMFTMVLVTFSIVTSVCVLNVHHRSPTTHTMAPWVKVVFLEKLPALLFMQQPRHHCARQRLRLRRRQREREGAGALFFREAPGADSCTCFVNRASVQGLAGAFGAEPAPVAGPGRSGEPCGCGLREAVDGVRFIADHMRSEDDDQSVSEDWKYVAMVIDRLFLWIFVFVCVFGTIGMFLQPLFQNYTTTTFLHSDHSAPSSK
T1 sequence (Q15825+P32297 fused with the stated changes): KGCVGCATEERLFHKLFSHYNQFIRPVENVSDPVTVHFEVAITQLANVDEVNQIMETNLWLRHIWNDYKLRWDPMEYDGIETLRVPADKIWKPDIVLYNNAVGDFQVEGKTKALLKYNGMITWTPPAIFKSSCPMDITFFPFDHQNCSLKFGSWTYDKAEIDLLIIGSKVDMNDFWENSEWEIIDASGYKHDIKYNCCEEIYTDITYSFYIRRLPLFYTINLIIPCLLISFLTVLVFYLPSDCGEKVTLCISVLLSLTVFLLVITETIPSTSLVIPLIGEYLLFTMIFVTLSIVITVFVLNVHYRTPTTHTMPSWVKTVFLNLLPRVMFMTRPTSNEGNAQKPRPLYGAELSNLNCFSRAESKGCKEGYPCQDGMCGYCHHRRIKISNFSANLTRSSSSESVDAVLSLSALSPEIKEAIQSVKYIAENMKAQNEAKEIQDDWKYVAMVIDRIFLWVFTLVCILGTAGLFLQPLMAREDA

Row | Structure (SMILES) | IC50 (read-out: IC50) [µM] | IC50 (IC50 (μM)) [µM]
1 | Cc1nc(NCC2NCCC2(F)F)ncc1-c1ccc(F)cc1F (single isomer, unassigned) [Example 83b, 5-(2,4-difluorophenyl)-N-((3,3-difluoropyrrolidin-2-yl)methyl)-4-methyl-pyrimidin-2-amine] | 0.456 | 
2 | Cc1nc(NC(C)C2CCN(C)C2)ncc1-c1ccc(F)cc1F (single isomer, unassigned) [Example 64b, 5-(2,4-difluorophenyl)-4-methyl-N-(1-(1-methylpyrrolidin-3-yl)ethyl) pyrimidin-2-amine] | 0.088 | 
3 | Cc1nc(NC2CCN(C(C)C)CC2)ncc1-c1ccc(F)cc1F [Example 67, 5-(2,4-difluorophenyl)-N-(1-isopropylpiperidin-4-yl)-4-methyl-pyrimidin-2-amine] | 0.066 | 
4 | COc1ccc(-c2nnc(NCC3CCCCN3C)nc2C)c(F)c1 (stereo not shown) [Example 26, 6-(2-fluoro-4-methoxyphenyl)-5-methyl-N-((1-methylpiperidin-2-yl)methyl)-1,2,4-triazin-3-amine] | 0.156 | 
5 | COc1ccc(-c2cnc(NCCC3CCCN3C)nc2C#N)c(F)c1 (stereo not shown) [Example 27, 5-(2-fluoro-4-methoxyphenyl)-2-((2-(1-methylpyrrolidin-2-yl)ethyl)amino) pyrimidine-4-carbonitrile] | 0.056 | 
6 | CC(C)N1CCCC(Nc2ncc(-c3ccc(F)cc3)cn2)C1 (stereo not shown) [Example 6, 5-(4-fluorophenyl)-N-(1-isopropylpiperidin-3-yl)pyrimidin-2-amine] | 0.123 | 
7 | COc1ccc(-c2nnc(NCC3CCCCN3C)nc2C)c(F)c1 (single isomer, unassigned) [Example 57b, 6-(2-fluoro-4-methoxyphenyl)-5-methyl-N-((1-methylpiperidin-2-yl)methyl)-1,2,4-triazin-3-amine] | 0.144 | 
8 | CN1CCCC1CNc1ncc(-c2ccc(F)cc2F)c(C#N)n1 (stereo not shown) [Example 19, 5-(2,4-difluorophenyl)-2-(((1-methylpyrrolidin-2-yl)methyl)amino) pyrimidine-4-carbonitrile] | 0.216 | 
9 | COc1ccc(-c2nnc(NC3CCCN(C)C3)nc2C)c(F)c1 (single isomer, unassigned) [Example 69b, 6-(2-fluoro-4-methoxyphenyl)-5-methyl-N-(1-methylpiperidin-3-yl)-1,2,4-triazin-3-amine] | 0.309 | 
10 | Cc1nc(NCCC2CCCN2C)ncc1-c1ccc(F)cc1F (stereo not shown) [Example 14, 5-(2,4-difluorophenyl)-4-methyl-N-(2-(1-methylpyrrolidin-2-yl)ethyl) pyrimidin-2-amine] | 0.042 | 
11 | Cc1nc(NC2CCCN(C)C2)ncc1-c1ccc(F)cc1F (single isomer, unassigned) [Example 77a, 5-(2,4-difluorophenyl)-4-methyl-N-(1-methylpiperidin-3-yl)pyrimidin-2-amine] | 0.07 | 
12 | COc1ccc(-c2cnc(NCCC3CCCN3C)nc2C)c(F)c1 (stereo not shown) [Example 16, 5-(2-fluoro-4-methoxyphenyl)-4-methyl-N-(2-(1-methylpyrrolidin-2-yl)ethyl)pyrimidin-2-amine] | 0.075 | 
13 | Cc1nc(NC[C@@H]2CCCNC2)ncc1-c1ccc(C(F)(F)F)cc1F [Example 113, (R)-5-(2-fluoro-4-(trifluoromethyl)phenyl)-4-methyl-N-((3-piperidinyl)methyl)pyrimidin-2-amine] | 0.045 | 
14 | Cc1nc(NCC2C(F)CCN2C)ncc1-c1ccc(F)cc1F (single isomer, unassigned) [Example 96a, 5-(2,4-difluorophenyl)-N-((3-fluoro-1-methylpyrrolidin-2-yl)methyl)-4-methyl-pyrimidin-2-amine] | 0.151 | 
15 | Cc1nc(NC2CCCC(N(C)C)C2)ncc1-c1ccc(F)cc1F (single isomer, unassigned) [Example 55b, N^1-(5-(2,4-difluorophenyl)-4-methyl-pyrimidin-2-yl)-N^3,N^3-dimethylcyclohexane-1,3-diamine] | 0.081 | 
16 | Cc1nc(NCC2COCCN2C)ncc1-c1ccc(F)cc1F (single isomer, unassigned) [Example 79a, 5-(2,4-difluorophenyl)-4-methyl-N-((4-methylmorpholin-3-yl)methyl) pyrimidin-2-amine] | 0.42 | 
17 | Cc1nc(NC2CCN(C)CC2)ncc1-c1ccc(F)cc1F [Example 71, 5-(2,4-difluorophenyl)-4-methyl-N-(1-methylpiperidin-4-yl)pyrimidin-2-amine] | 0.054 | 
18 | Cc1nc(NC[C@H]2CC(F)(F)CN2C)ncc1-c1ccc(F)cc1F [Example 80, (R)—N-((4,4-difluoro-1-methylpyrrolidin-2-yl)methyl)-5-(2,4-difluorophenyl)-4-methyl-pyrimidin-2-amine] | 1.47 | 
19 | COc1ccc(-c2cnc(NCC3COCCN3C)nc2C)c(Cl)c1 (stereo not shown) [Example 62, 5-(2-chloro-4-methoxyphenyl)-4-methyl-N-((4-methylmorpholin-3-yl)methyl)pyrimidin-2-amine] | 0.064 | 
20 | Cc1nc(NC(C)C2CCN(C)C2)ncc1-c1ccc(F)cc1F (single isomer, unassigned) [Example 64a, 5-(2,4-difluorophenyl)-4-methyl-N-(1-(1-methylpyrrolidin-3-yl)ethyl) pyrimidin-2-amine] | 0.09 | 
21 | Cc1nc(NC(C)[C@@H]2CCCN2)ncc1-c1ccc(C(F)(F)F)cc1F (single isomer, unassigned) [Example 130b, 5-(2-fluoro-4-(trifluoromethyl)phenyl)-4-methyl-N-((1*S)-1-((2S)-pyrrolidin-2-yl)ethyl)pyrimidin-2-amine] | 0.049 | 
22 | Cc1nc(NC[C@H]2CCCN2C)ncc1-c1ccc(OC(F)(F)F)cc1F [Example 93a, (R)-5-(2-fluoro-4-(trifluoromethoxy)phenyl)-4-methyl-N-((1-methylpyrrolidin-2-yl)methyl)pyrimidin-2-amine] | 0.05 | 
23 | Cc1nc(NCC2CCCN2)ncc1-c1ccc(F)cc1F (stereo not shown) [Example 82, 5-(2,4-difluorophenyl)-4-methyl-N-(pyrrolidin-2-ylmethyl)pyrimidin-2-amine] | 0.018 | 
24 | Cc1nc(NC[C@H]2CCCCN2)ncc1-c1ccc(C(F)(F)F)cc1F [Example 104a, (R)-5-(2-fluoro-4-(trifluoromethyl)phenyl)-4-methyl-N-(2-piperidinylmethyl)pyrimidin-2-amine] |  | 0.104
25 | COc1ccc(-c2cnc(NCC3CN(C)CCO3)nc2C)c(F)c1 (stereo not shown) [Example 36, 5-(2-fluoro-4-methoxyphenyl)-4-methyl-N-((4-methylmorpholin-2-yl)methyl)pyrimidin-2-amine] | 0.14 | 
26 | COc1ccc(-c2cnc(NC3CCCN(C(C)C)C3)nc2C)c(F)c1 (stereo not shown) [Example 48, 5-(2-fluoro-4-methoxyphenyl)-N-(1-isopropylpiperidin-3-yl)-4-methyl-pyrimidin-2-amine] | 0.083 | 
27 | COc1ccc(-c2cnc(NCC3CCCN(C(C)C)C3)nc2C)c(F)c1 (stereo not shown) [Example 49, 5-(2-fluoro-4-methoxyphenyl)-N-((1-isopropylpiperidin-3-yl)methyl)-4-methyl-pyrimidin-2-amine] | 0.069 | 
28 | O=C(O)/C=C/C(=O)O.[2H]C([2H])([2H])N1CCC[C@@H]1CNc1ncc(-c2ccc(C(F)(F)F)cc2F)c(C)n1 [Example 117, (R)-5-(2-fluoro-4-(trifluoromethyl)phenyl)-4-methyl-N-((1-(trideuteriomethyl)pyrrolidin-2-yl)methyl)pyrimidin-2-amine] | 0.025 | 
